As a reminder, the pIC50 is −log10 of the IC50, conventionally taken in molar units. High values mean a low IC50, low ones a high IC50. Usually clearance stands for the volume of plasma or blood freed of the substance per unit of time. A high value points to a high capacity for elimination. As usually defined, the half-life is the time in which the quantity being followed falls by half. Low readings indicate fast loss, high ones slow loss. By bioavailability is commonly meant the share of a dose that reaches the circulation, judged against a reference dose that is usually intravenous. Low readings indicate little systemic uptake, high ones much systemic uptake. The inhibition is the change of the read-out against control, counted positive when it falls.

The results in this text go back to ChEMBL document CHEMBL1139781, “Pyrazolo[3,4-d]pyrimidines as potent inhibitors of the insulin-like growth factor receptor (IGF-IR)” (Bioorg Med Chem Lett, 2007).

pIC50: −log10 of the molar value.

The target of data set [1] is T1, Insulin-like growth factor 1 receptor (Homo sapiens, UniProt P08069). Kind of data set: Inhibition IGF1R phosphorylation in human MiaPaCa2 cells. Type of data set: cell-based.
Data set [2] deals with T1, Insulin-like growth factor 1 receptor. Kind of data set: Inhibition of human IGF1R expressed in Sf21 cells by time-resolved fluorescence assay.
A short description of data set [3]: Plasma clearance in mouse. Type of data set: ADME, organism-based.
The subject of data set [4] is Mus musculus. Nature of the data set: Dose normalized AUC in po dosed mouse. Format: ADME, organism-based. As to conditions: in vivo.
The nature of data set [5]: Half life in mouse. Format: ADME, organism-based. The note with it: in vivo.
In data set [6] the test system is Mus musculus. Nature of the data set: Dose normalized AUC in iv dosed mouse. Format: ADME, organism-based. As to conditions: in vivo.
Data set [7] can be described thus: Bioavailability in mouse. Format: ADME, organism-based. As to conditions: in vivo.
In data set [8] the test system is Mus musculus. Nature of the data set: In vivo inhibition of IFG1R autophosphorylation in C57BL/6 mouse lung at 12.5 mg/kg, po after 4 hrs. Type of data set: organism-based. On the set-up: dose 12.5 mg/kg, route oral. The note with it: C57BL6, po.
Data set [9] is described as follows: Drug concentration in C57BL/6 mouse plasma at 12.5 mg/kg, po after 4 hrs. Type of data set: ADME, organism-based, C57BL6. The arrangement: dose 12.5 mg/kg, route oral.

T1 sequence (P08069 31-736 limits assumed): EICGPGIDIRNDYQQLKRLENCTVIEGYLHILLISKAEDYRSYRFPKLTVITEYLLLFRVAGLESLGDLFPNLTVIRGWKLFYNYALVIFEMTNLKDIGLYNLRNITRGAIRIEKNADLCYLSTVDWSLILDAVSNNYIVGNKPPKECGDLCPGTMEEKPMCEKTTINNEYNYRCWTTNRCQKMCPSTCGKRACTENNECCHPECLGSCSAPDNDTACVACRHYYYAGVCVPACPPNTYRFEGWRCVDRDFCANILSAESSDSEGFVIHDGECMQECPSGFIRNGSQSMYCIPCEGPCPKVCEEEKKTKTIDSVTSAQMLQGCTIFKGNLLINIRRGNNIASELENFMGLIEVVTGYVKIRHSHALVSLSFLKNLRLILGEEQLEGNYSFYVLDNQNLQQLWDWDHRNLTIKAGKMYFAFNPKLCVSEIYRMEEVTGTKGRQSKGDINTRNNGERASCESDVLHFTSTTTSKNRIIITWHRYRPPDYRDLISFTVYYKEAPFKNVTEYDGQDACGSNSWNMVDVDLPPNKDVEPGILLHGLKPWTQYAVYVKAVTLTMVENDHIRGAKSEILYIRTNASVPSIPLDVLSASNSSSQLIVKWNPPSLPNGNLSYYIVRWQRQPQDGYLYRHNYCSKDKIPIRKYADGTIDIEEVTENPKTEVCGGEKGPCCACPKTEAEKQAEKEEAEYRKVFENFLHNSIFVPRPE
T1 sequence (P08069 741-1367 limits assumed): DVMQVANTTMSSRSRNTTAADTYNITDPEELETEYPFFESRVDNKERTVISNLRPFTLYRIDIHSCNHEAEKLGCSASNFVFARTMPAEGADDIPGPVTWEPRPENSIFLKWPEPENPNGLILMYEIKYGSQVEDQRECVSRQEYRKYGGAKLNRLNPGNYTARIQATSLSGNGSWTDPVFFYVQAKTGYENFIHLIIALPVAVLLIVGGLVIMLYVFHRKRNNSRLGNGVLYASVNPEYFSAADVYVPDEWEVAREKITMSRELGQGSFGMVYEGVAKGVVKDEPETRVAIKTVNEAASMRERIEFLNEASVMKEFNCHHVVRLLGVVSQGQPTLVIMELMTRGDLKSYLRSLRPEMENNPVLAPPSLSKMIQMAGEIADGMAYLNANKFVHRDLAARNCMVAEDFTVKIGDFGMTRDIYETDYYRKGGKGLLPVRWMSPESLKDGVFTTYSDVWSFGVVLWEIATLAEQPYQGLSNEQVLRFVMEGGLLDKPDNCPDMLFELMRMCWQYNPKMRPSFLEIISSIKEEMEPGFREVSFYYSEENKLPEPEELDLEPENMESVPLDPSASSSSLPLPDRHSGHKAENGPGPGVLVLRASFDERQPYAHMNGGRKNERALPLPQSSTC

In the case of `Cc1ccccc1Cc1nc2ccc(-c3nn([C@H]4CC[C@H](N5CCOCC5)CC4)c4ncnc(N)c34)cc2[nH]1`, the results for the pIC50 in data set [1] and in [2] were 6.93 and 7.42, respectively.
For the compound `Nc1ncnc2c1c(-c1ccc3nc(Cc4cccs4)[nH]c3c1)nn2[C@H]1CC[C@H](N2CCOCC2)CC1`, the negative logarithm of the IC50 (pIC50) was 7.25 in data set [1] and 7.64 in data set [2]. Also, in data set [3], the clearance is 76.7 mL/min/kg. Also, the values for the AUC in [4] and in data set [6] were 0.039 µmol·h/L/mg/kg and 0.42 µmol·h/L/mg/kg, respectively. In [5], this compound showed a half-life of 36 min. In [7], this compound registered a bioavailability of 9%.
Take `Nc1ncnc2c1c(-c1ccc3nc(Cc4ccsc4)[nH]c3c1)nn2[C@H]1CC[C@H](N2CCOCC2)CC1`: the results for the pIC50 in [1] and in data set [2] were 7.08 and 7.49, respectively.
For `CN1CCN([C@H]2C[C@@H](c3nc(-c4ccc5ccc(-c6ccccc6)nc5c4)c4c(N)nccn43)C2)CC1`, in that order: 7.24 and 7.43.
For `Nc1ncnc2c1c(-c1ccc3[nH]c(-c4ccccc4)nc3c1)nn2[C@H]1CC[C@H](N2CCOCC2)CC1`, in that order: 6.10 and 6.75.
Taken in the same sequence, the figures for `Nc1ncnc2c1c(-c1ccc3nc(Cc4c(F)cccc4F)[nH]c3c1)nn2[C@H]1CC[C@H](N2CCOCC2)CC1` were 6.98 and 7.10.
`Nc1ncnc2c1c(-c1ccc3nc(Cc4ccccc4)[nH]c3c1)nn2[C@H]1CC[C@H](N2CCOCC2)CC1`: the pIC50 is 7.03 in [1] and 7.19 in data set [2]. In data set [3], this compound had a clearance of 38.3 mL/min/kg. Besides, the results for the AUC in [4] and in data set [6] were 0.16 µmol·h/L/mg/kg and 1.1 µmol·h/L/mg/kg, respectively. Further, in [5], the half-life is 60 min. For the same compound, the bioavailability in data set [7] turned out to be 15%.
Regarding `Nc1ncnc2c1c(-c1ccc3nc(Cc4ccc5ccccc5c4)[nH]c3c1)nn2[C@H]1CC[C@H](N2CCOCC2)CC1`, the pIC50 in data set [1] was 5.63; in data set [2], 5.88.
For `Nc1ncnc2c1c(-c1ccc3nc(Cc4cccc(Cl)c4)[nH]c3c1)nn2[C@H]1CC[C@H](N2CCOCC2)CC1`, in that order: 6.43 and 6.91.
`Nc1ncnc2c1c(-c1ccc3[nH]c(Cc4c(F)cccc4Cl)nc3c1)nn2[C@H]1CC[C@H](N2CCOCC2)CC1`: the negative-log IC50 (pIC50) in data set [1] is 6.95; in data set [2] it was 7.05.
For `Nc1ncnc2c1c(-c1ccc3nc(Cc4ccc(F)c(F)c4)[nH]c3c1)nn2[C@H]1CC[C@H](N2CCOCC2)CC1`, in that order: 6.09 and 6.17.
Taken in the same sequence, the figures for `Nc1ncnc2c1c(-c1ccc3nc(Cc4cccc(F)c4)[nH]c3c1)nn2[C@H]1CC[C@H](N2CCOCC2)CC1` were 6.85 and 7.24.
For `Cc1ccc(Cc2nc3ccc(-c4nn([C@H]5CC[C@H](N6CCOCC6)CC5)c5ncnc(N)c45)cc3[nH]2)cc1`, in that order: 6.59 and 7.15.
In the case of `Nc1ncnc2c1c(-c1ccc3nc(Cc4ccccc4Cl)[nH]c3c1)nn2[C@H]1CC[C@H](N2CCOCC2)CC1`, the pIC50 was 7.05 in data set [1] and 7.43 in [2]. In addition, the clearance in data set [3] is 20 mL/min/kg. The results for the AUC in data set [4] and in data set [6] were 0.43 µmol·h/L/mg/kg and 1.5 µmol·h/L/mg/kg, respectively. This compound also showed a half-life in data set [5] of 72 min. This compound also displayed an inhibition at 12.5 mg/kg in data set [8] of 92%. In data set [7], this compound registered a bioavailability of 28%. For the same compound, the concentration at 4 h in data set [9] is 2400 nM.
Regarding `Cc1cccc(Cc2nc3ccc(-c4nn([C@H]5CC[C@H](N6CCOCC6)CC5)c5ncnc(N)c45)cc3[nH]2)c1`, the pIC50 in [1] was 6.57; in [2] it was 6.73.
`Nc1ncnc2c1c(-c1ccc3[nH]c(Cc4cccc(Cl)c4Cl)nc3c1)nn2[C@H]1CC[C@H](N2CCOCC2)CC1` had a pIC50 in [2] of 5.63.
As to `Cc1cc(-c2nn([C@H]3CC[C@H](N4CCOCC4)CC3)c3ncnc(N)c23)cc2[nH]c(Cc3ccccc3)nc12`, the pIC50 in data set [1] is 5.55; in data set [2] it was 5.36.
For `Nc1ncnc2c1c(-c1ccc3nc(Cc4ccccc4F)[nH]c3c1)nn2[C@H]1CC[C@H](N2CCOCC2)CC1`, in that order: 6.77 and 7.29.
Taken in the same sequence, the figures for `Nc1ncnc2c1c(-c1ccc3nc(Cc4ccccn4)[nH]c3c1)nn2[C@H]1CC[C@H](N2CCOCC2)CC1` were 5.58 and 5.63.
Taken in the same sequence, the figures for `Nc1ncnc2c1c(-c1ccc3[nH]c(Cc4c(Cl)cccc4Cl)nc3c1)nn2[C@H]1CC[C@H](N2CCOCC2)CC1` were 6.60 and 6.90.
As for `Cn1c(Cc2ccccc2)nc2cc(-c3nn([C@H]4CC[C@H](N5CCOCC5)CC4)c4ncnc(N)c34)ccc21`, the pIC50 in data set [1] was 6.88; in data set [2], 7.46.
Taken in the same sequence, the figures for `Nc1ncnc2c1c(-c1ccc3nc(Cc4ccc(Cl)cc4)[nH]c3c1)nn2[C@H]1CC[C@H](N2CCOCC2)CC1` were 6.20 and 6.19.
Taken in the same sequence, the figures for `Nc1ncnc2c1c(-c1ccc3nc(Cc4cccc(F)c4F)[nH]c3c1)nn2[C@H]1CC[C@H](N2CCOCC2)CC1` were 6.71 and 6.76.
Taken in the same sequence, the figures for `Nc1ncnc2c1c(-c1ccc3[nH]c(Cc4ccccc4Br)nc3c1)nn2[C@H]1CC[C@H](N2CCOCC2)CC1` were 7.19 and 7.15.
For `Nc1ncnc2c1c(-c1ccc3nc(Cc4ccc(Cl)c(Cl)c4)[nH]c3c1)nn2[C@H]1CC[C@H](N2CCOCC2)CC1`, the pIC50 in [1] is 6.37; in data set [2], 6.31.
Taken in the same sequence, the figures for `Nc1ncnc2c1c(-c1ccc3nc(Cc4ccc(F)cc4)[nH]c3c1)nn2[C@H]1CC[C@H](N2CCOCC2)CC1` were 5.90 and 6.03.
With `COc1ccccc1Cc1nc2ccc(-c3nn([C@H]4CC[C@H](N5CCOCC5)CC4)c4ncnc(N)c34)cc2[nH]1`, the values for the pIC50 in data set [1] and in data set [2] were 6.85 and 7.09, respectively.
For `Nc1ncnc2c1c(-c1ccc3nc(Cc4cc(F)cc(F)c4)[nH]c3c1)nn2[C@H]1CC[C@H](N2CCOCC2)CC1`, in that order: 6.74 and 6.82.
Regarding `Cc1nc(Cc2nc3ccc(-c4nn([C@H]5CC[C@H](N6CCOCC6)CC5)c5ncnc(N)c45)cc3[nH]2)cs1`, the pIC50 in data set [1] is 5.81; in data set [2], 5.48.
